Source: ChEMBL document CHEMBL5465560, “Selectivity Literature for EUbOPEN Chemogenomic Library” (2024)

How the values were obtained:
[1] = target: T1, Testis-specific serine/threonine-protein kinase 1 (Homo sapiens) (UniProt Q9BXA7); assay: Selectivity interaction (KinomeScan (DiscoverX)) EUB0000229b TSSK1B; details: at 10 µM
T1 sequence (whole entry): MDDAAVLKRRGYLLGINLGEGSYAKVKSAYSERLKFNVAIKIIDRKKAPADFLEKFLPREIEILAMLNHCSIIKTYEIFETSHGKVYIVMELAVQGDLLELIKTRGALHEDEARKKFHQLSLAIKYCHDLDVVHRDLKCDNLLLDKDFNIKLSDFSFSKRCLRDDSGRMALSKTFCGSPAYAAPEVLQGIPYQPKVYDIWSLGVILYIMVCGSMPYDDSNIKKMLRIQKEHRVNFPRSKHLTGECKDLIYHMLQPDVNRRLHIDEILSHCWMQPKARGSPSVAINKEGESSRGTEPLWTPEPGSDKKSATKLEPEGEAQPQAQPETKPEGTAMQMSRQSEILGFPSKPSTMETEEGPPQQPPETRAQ

[2] = target: Mitogen-activated protein kinase kinase kinase 1 (Homo sapiens, UniProt Q13233); assay: Selectivity interaction (KinomeScan (DiscoverX)) EUB0000092b MAP3K1; details: at 10 µM
Mitogen-activated protein kinase kinase kinase 1, sequence (Q13233 whole entry): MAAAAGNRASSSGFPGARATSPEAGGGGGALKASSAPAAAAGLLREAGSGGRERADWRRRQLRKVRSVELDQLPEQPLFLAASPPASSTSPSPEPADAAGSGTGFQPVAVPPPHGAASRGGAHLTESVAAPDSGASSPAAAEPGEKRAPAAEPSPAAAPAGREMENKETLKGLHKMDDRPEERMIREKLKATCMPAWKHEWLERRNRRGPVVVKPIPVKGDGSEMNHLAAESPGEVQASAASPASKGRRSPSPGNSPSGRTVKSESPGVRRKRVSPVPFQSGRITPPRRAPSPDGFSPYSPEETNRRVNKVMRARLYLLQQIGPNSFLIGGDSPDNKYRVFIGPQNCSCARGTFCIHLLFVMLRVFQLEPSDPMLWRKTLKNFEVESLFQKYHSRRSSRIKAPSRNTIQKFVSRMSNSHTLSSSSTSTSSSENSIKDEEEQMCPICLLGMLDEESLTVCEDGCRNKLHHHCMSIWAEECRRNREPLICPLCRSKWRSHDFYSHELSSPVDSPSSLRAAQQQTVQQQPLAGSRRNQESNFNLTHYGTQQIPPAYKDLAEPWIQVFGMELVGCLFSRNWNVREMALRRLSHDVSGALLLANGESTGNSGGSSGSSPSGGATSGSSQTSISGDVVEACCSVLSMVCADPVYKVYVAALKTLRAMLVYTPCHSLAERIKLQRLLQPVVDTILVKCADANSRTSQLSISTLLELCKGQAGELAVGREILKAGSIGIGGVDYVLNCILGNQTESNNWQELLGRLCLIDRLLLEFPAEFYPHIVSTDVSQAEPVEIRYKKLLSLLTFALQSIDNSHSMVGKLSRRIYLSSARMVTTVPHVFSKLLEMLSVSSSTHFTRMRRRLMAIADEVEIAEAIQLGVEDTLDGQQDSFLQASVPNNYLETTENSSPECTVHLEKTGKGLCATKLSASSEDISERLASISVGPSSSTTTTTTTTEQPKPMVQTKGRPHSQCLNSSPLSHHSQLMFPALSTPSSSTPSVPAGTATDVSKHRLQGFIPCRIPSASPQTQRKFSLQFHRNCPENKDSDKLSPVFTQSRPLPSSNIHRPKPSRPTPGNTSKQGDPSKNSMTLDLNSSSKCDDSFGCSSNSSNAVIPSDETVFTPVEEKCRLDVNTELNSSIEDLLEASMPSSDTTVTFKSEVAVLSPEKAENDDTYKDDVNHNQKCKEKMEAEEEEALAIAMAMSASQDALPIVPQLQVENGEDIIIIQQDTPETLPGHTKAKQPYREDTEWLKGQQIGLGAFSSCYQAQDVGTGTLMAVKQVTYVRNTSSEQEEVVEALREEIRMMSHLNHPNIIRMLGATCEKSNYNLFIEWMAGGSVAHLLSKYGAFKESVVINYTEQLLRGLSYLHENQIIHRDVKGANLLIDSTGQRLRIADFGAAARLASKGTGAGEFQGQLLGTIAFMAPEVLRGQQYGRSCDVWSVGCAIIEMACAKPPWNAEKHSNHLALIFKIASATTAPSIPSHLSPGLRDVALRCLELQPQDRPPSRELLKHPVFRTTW

[3] = target: Serine/threonine-protein kinase PAK 1 (Homo sapiens) (UniProt Q13153); assay: Selectivity interaction (KinomeScan (DiscoverX)) EUB0000655a PAK1; details: at 10 µM
Serine/threonine-protein kinase PAK 1 (Homo sapiens), sequence (Q13153 whole entry): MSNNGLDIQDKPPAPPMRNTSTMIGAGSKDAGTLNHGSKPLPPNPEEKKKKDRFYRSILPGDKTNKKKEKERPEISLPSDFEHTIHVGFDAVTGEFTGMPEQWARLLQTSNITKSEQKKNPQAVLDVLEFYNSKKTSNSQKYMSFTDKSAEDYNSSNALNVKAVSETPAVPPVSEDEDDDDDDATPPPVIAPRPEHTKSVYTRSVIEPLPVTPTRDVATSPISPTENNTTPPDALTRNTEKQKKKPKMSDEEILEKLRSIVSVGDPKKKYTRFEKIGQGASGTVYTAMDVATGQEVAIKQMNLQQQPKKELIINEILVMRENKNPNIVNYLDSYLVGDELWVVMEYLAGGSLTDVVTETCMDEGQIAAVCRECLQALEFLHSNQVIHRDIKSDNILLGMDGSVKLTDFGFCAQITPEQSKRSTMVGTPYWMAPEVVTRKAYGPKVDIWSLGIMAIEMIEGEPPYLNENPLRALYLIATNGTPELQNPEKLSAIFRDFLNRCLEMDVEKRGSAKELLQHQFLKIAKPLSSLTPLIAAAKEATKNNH

[4] = target: T2, Serine/threonine-protein kinase ULK3 (Homo sapiens) (UniProt Q6PHR2); details: at 10 µM
T2 sequence (whole entry): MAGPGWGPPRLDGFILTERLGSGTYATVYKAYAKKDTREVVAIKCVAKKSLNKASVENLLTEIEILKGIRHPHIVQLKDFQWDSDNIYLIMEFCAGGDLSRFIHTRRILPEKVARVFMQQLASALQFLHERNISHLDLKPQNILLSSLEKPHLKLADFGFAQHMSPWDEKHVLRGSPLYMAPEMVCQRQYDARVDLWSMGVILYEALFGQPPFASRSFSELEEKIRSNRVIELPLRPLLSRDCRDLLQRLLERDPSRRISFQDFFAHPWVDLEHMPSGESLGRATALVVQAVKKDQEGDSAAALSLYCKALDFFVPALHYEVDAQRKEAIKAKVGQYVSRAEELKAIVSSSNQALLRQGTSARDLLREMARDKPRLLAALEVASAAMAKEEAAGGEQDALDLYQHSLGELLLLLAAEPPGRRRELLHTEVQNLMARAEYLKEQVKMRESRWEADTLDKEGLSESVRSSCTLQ

[5] = target: T3, Serine/threonine-protein kinase Sgk3 (Homo sapiens) (UniProt Q96BR1); assay: Selectivity interaction (ActivX KiNativ screen (kinase selectivity in THP-1 cell lysates)) EUB0000639a SGK3; assay type: subcellular; details: lysate, at 1 µM
T3 sequence (whole entry): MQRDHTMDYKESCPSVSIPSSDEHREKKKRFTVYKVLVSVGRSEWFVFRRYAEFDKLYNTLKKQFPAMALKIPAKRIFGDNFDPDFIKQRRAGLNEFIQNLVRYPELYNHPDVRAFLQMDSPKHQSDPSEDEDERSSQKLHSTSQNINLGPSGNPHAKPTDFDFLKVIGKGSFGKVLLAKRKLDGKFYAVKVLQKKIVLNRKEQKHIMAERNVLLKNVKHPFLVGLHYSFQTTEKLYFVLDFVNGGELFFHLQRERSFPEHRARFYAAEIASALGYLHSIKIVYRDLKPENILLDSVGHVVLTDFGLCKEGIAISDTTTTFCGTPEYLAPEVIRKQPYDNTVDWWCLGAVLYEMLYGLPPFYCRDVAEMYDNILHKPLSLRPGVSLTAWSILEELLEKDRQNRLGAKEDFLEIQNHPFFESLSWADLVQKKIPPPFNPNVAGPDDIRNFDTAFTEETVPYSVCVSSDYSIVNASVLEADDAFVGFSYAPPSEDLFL

[6] = target: Homeodomain-interacting protein kinase 2 (Homo sapiens, UniProt Q9H2X6); assay: Selectivity interaction (KinomeScan (DiscoverX)) EUB0001049a HIPK2; details: at 1 µM
Homeodomain-interacting protein kinase 2, sequence (Q9H2X6 whole entry, looked up): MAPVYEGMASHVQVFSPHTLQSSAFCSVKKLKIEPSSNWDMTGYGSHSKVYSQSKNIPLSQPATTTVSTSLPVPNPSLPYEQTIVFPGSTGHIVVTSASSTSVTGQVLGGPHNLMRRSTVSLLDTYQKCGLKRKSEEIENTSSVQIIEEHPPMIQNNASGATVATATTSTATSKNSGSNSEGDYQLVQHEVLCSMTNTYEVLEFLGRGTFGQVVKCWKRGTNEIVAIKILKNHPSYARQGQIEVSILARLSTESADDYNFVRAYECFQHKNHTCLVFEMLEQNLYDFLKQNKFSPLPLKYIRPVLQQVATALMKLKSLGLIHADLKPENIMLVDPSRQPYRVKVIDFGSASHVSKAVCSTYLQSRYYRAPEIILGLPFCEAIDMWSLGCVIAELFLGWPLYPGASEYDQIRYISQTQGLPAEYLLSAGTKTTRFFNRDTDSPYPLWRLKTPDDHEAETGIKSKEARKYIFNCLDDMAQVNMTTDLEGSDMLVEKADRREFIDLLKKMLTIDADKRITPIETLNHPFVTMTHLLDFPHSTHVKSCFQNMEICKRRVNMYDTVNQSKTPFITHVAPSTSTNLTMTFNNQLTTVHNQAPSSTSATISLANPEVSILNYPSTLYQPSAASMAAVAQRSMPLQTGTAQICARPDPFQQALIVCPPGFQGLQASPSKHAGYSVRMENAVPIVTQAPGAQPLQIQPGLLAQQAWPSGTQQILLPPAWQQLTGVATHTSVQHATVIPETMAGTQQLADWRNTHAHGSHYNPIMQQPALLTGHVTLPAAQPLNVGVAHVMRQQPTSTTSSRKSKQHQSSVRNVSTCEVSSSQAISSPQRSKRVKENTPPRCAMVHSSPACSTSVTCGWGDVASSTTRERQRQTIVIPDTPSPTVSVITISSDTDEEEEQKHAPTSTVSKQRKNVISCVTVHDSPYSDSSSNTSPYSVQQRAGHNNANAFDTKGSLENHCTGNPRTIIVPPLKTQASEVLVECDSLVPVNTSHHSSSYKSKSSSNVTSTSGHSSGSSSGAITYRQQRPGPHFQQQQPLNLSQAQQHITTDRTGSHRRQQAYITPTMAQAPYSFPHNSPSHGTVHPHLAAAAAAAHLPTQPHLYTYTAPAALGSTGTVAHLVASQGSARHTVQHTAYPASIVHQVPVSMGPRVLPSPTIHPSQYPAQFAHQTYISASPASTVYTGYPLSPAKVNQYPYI

[7] = target: Cyclin-dependent kinase-like 3 (Homo sapiens) (UniProt Q8IVW4); assay: Selectivity interaction (KinomeScan (DiscoverX)) EUB0001049a CDKL3; details: at 1 µM
Cyclin-dependent kinase-like 3 (Homo sapiens), sequence (Q8IVW4 whole entry, looked up): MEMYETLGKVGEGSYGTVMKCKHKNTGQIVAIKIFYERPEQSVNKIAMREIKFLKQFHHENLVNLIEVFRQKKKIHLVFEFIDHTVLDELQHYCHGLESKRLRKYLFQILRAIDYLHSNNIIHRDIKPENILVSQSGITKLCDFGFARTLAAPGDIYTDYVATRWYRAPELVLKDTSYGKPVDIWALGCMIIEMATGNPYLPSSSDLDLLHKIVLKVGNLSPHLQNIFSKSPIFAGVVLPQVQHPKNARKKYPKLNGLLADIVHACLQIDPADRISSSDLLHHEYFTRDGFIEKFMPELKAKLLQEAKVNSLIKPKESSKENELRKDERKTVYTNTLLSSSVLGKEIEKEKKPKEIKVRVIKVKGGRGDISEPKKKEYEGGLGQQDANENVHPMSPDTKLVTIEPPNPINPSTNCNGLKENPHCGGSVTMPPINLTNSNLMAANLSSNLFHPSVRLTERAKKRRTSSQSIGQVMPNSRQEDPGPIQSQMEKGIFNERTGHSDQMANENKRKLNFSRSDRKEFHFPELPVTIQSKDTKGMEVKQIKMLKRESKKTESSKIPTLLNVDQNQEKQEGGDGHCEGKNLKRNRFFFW

[8] = target: Serine/threonine-protein kinase 24 (Homo sapiens) (UniProt Q9Y6E0); assay: Selectivity interaction (KinomeScan (DiscoverX)) EUB0000595a STK24; details: at 10 µM
Serine/threonine-protein kinase 24 (Homo sapiens), sequence (Q9Y6E0 whole entry, looked up): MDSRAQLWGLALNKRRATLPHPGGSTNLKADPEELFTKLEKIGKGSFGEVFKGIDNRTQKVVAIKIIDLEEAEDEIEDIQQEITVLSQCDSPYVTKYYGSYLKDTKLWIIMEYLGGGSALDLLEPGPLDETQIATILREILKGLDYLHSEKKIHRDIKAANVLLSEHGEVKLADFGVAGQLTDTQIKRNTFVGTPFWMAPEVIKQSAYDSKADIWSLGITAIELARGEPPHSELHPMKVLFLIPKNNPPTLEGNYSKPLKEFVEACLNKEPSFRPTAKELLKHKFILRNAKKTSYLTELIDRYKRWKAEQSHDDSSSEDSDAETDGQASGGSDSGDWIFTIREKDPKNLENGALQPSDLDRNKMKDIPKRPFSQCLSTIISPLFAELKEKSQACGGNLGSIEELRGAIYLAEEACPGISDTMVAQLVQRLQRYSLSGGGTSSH

[9] = target: T4, MAP/microtubule affinity-regulating kinase 4 (Homo sapiens) (UniProt Q96L34); assay: Selectivity interaction (KinomeScan (DiscoverX)) EUB0000618a MARK4; details: at 10 µM
T4 sequence (whole entry): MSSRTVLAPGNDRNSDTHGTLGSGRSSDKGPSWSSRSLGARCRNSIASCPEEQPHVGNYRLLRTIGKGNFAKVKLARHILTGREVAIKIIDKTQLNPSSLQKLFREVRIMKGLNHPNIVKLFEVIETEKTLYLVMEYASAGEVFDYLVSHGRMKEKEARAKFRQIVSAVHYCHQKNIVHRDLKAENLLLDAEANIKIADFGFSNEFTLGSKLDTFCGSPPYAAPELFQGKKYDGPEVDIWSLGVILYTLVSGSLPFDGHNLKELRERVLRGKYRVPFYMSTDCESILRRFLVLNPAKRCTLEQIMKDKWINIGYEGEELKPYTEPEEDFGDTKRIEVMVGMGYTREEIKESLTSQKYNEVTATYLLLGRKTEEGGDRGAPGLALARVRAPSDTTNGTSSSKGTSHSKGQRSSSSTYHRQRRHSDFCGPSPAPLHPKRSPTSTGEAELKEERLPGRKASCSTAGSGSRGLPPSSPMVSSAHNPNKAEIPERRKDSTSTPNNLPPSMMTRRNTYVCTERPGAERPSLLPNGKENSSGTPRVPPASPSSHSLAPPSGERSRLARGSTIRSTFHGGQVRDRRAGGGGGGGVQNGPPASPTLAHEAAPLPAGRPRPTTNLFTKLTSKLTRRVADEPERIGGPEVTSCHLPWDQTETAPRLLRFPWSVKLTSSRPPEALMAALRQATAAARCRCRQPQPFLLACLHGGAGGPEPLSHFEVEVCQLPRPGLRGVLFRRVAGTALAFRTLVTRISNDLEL

**Q.** With `COc1cc(N(C)c2ccnc3ccc(C(F)(F)F)cc23)cc(OC)c1OC` as the compound, how does the % binding [1] read?
**A.** 91%

**Q.** `CCC(=O)N1CCN(c2ccc(-n3c(=O)ccc4cnc5ccc(-c6cnc7ccccc7c6)cc5c43)cc2C(F)(F)F)CC1` was tested. Which % of control [2] did it give?
**A.** 92%

**Q.** `CN(C)CCOc1ccc(-c2nc(-c3ccncc3)c(-c3ccc4c(c3)CC/C4=N\O)[nH]2)cc1` was tested. Which % of control [3] did it give?
**A.** 87%

**Q.** How did the % of control [4] turn out when `Cc1cc([C@@H](C)Nc2ccccc2C(=O)O)c2nc(N3CCOCC3)cc(=O)n2c1` [AZD-6482] was run?
**A.** 98%

**Q.** `CC[C@@H]1[C@H](F)C(=O)N[C@@H]1COc1nccc2cc(C(N)=O)c(OC)cc12` [ZIMLOVISERTIB] was tested. Which % of inhibition [5] did it give?
**A.** -1%

**Q.** How did the % of control [6] turn out when `COc1cc(Nc2nc(C)cc(-c3cnn4nc(OC)ccc34)n2)cc(C(F)(F)F)c1` was run?
**A.** 94%

**Q.** And the % of control [7]?
**A.** 94%

**Q.** `COCC(=O)NC/C=C/c1ccc2ncnc(Nc3ccc(Oc4ccc(C)nc4)c(C)c3)c2c1` [CP-724714] was tested. Which % of control [8] did it give?
**A.** 90%

**Q.** For `O[C@H]1CC[C@H](Nc2ncc3nc(Nc4c(F)cc(F)cc4F)n([C@H]4CCOC4)c3n2)CC1`, which % of control [9] is on record?
**A.** 100%
